Experimental data taken from BindingDB's records for doi:10.3109/14756366.2012.719503 (Kinki University, 2013).

The compounds below were run against Alpha-glucosidase MAL12 (Saccharomyces cerevisiae (strain ATCC 204508 / S288c), UniProt P53341) (assay: α-glucosidase Inhibitory Activity Assay). Settings: pH 7; 25 °C.
Description: α-glucosidase (25 μL, 0.2 U/mL), 25 μL of various concentrations of samples, and 175 μL of 50 mM sodium phosphate buffer (pH 7.0) were mixed at room temperaturefor 10 min. The reaction was started by the addition of 25 μL of 2.5 mM p-nitrophenyl-α-d-glucopyranoside. […] Control sample contained 25 μL DMSO in place of test samples.

Sequence of Alpha-glucosidase MAL12 (P53341 whole entry): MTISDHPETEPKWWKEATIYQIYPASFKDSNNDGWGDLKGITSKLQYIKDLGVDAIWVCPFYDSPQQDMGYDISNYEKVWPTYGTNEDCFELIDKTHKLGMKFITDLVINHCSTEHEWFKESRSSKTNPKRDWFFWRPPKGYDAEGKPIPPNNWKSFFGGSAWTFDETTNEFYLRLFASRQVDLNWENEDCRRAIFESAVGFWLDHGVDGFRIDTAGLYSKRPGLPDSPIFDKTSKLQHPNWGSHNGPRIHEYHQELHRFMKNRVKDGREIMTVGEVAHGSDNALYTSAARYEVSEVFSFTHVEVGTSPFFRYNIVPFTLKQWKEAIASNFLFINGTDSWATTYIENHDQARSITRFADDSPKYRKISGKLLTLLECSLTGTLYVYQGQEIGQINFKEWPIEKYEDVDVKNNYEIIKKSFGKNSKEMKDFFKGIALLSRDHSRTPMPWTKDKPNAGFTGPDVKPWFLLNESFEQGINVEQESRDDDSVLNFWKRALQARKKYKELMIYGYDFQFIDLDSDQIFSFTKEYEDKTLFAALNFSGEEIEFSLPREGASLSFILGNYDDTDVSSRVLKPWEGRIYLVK

SMILES	IC50 [µM]
COc1c(O)cc2c(c1O)C1O[C@H](CO)[C@@H](O)[C@H](O)C1OC2=O (stereo not given in full) [Bergenin (1)]	> 300
O=C(O)c1ccc(O)cc1 [4-Hydroxybenzoate, III]	> 300
COc1c(O)cc2c(c1O)C1O[C@H](COC(=O)c3ccccc3)[C@@H](O)[C@H](O)C1OC2=O (stereo not given in full) [11-O-benzoylbergenin (2)]	118
COc1c(O)cc2c(c1O)C1O[C@H](COC(=O)c3ccc(O)cc3)[C@@H](O)[C@H](O)C1OC2=O (stereo not given in full) [11-O-p-hydroxybenzoylbergenin (3)]	143
COc1cc(C(=O)O)ccc1O [4-hydroxy-3-methoxybenzoic acid]	> 300
O=C(O)c1ccccc1 [SAMPL4, O1]	> 300
COc1ccc(C(=O)O)cc1 [Anisic acid]	> 300
O=C(O)c1ccc(O)c(O)c1 [Protocatechuic acid (M1)]	> 300
COc1ccc(C(=O)O)cc1OC [3,4-dimethoxybenzoic acid]	> 300

Further lines, results first:

IC50 [µM]	SMILES
290	COc1c(O)cc2c(c1O)C1O[C@H](COC(=O)c3ccc(O)c(O)c3)[C@@H](O)[C@H](O)C1OC2=O (stereo not given in full) [11-O-protocatechuoylbergenin (5)]
24.6	COc1ccc(C(=O)OC[C@H]2OC3c4c(cc(O)c(OC)c4O)C(=O)OC3[C@@H](O)[C@@H]2O)cc1OC (stereo not given in full) [11-O-(3',4'-dimethoxybenzoyl)-bergenin (6)]
144	COc1ccc(C(=O)OC[C@H]2OC3c4c(cc(O)c(OC)c4O)C(=O)OC3[C@@H](O)[C@@H]2O)cc1 (stereo not given in full) [11-O-p-methoxybenzoylbergenin (4)]
> 300	COc1cc(OC)cc(C(=O)OC[C@H]2OC3c4c(cc(O)c(OC)c4O)C(=O)OC3[C@@H](O)[C@@H]2O)c1 (stereo not given in full) [11-O-(3',5'-dimethoxybenzoyl)-bergenin (8)]
187	COc1cc(C(=O)OC[C@H]2OC3c4c(cc(O)c(OC)c4O)C(=O)OC3[C@@H](O)[C@@H]2O)ccc1O (stereo not given in full) [11-O-vanilloylbergenin (7)]
> 300	COc1cc(C(=O)OC[C@H]2OC3c4c(cc(O)c(OC)c4O)C(=O)OC3[C@@H](O)[C@@H]2O)cc(OC)c1O (stereo not given in full) [11-O-syringylbergenin (9)]
